Laboratory results taken from PubChem BioAssay AID316 (DTP/NCI, 2004).
Values joined by “and” are separate entries in the source; they are usually repeats but may differ in a detail not shown here. Identical values can stand only once. Toxic doses and inconclusive results are not listed.

Tested on: P1534 leukemia ip, CD2F1 mice, survival T/C
Test: NCI In Vivo Anticancer Drug Screen. Data for tumor model P1534 Leukemia (intraperitoneal) in CD2F1 (CDF1) mice
Conditions: higher = longer survival
Procedure: The antitumor activity of compounds was measured in mice bearing transplantable tumors. Survival or tumor size were measured and the results are expressed as the measurement made in the treated group (T) divided by the measurement made in the vehicle treated control group (C). The tumor model used in this assay is P1534 Leukemia (intraperitoneal) in CD2F1 (CDF1) mice

[1] = endpoint: mean survival time, dose: 12.5 mg/kg/injection, schedule: Q01DX010 (ip), vehicle: saline
[2] = endpoint: mean survival time, dose: 25.0 mg/kg/injection, schedule: Q01DX010 (ip), vehicle: saline
[3] = endpoint: mean survival time, dose: 50.0 mg/kg/injection, schedule: Q01DX010 (ip), vehicle: saline
[4] = endpoint: mean survival time, dose: 32.0 mg/kg/injection, schedule: Q01DX010 (ip), vehicle: saline
[5] = endpoint: mean survival time, dose: 64.0 mg/kg/injection, schedule: Q01DX010 (ip), vehicle: saline
[6] = endpoint: mean survival time, dose: 200.0 mg/kg/injection, schedule: Q01DX010 (ip), vehicle: water
[7] = endpoint: mean survival time, dose: 20.0 mg/kg/injection, schedule: Q01DX010 (ip), vehicle: saline
[8] = endpoint: mean survival time, dose: 100.0 mg/kg/injection, schedule: Q01DX010 (ip), vehicle: saline
[9] = endpoint: mean survival time, dose: 400.0 mg/kg/injection, schedule: Q01DX010 (ip), vehicle: water
[10] = endpoint: mean survival time, dose: 600.0 mg/kg/injection, schedule: Q01DX010 (ip), vehicle: water
[11] = endpoint: mean survival time, dose: 2.5 mg/kg/injection, schedule: Q01DX010 (ip), vehicle: saline
[12] = endpoint: mean survival time, dose: 5.0 mg/kg/injection, schedule: Q01DX010 (ip), vehicle: saline
[13] = endpoint: mean survival time, dose: 10.0 mg/kg/injection, schedule: Q01DX010 (ip), vehicle: saline

## COc1cc(-c2ccc(Nc3ccccc3C(=O)O)c(OC)c2)ccc1Nc1ccccc1C(=O)O
[1]
  T/C: 107 % of control
[2]
  T/C: 114 % of control and 117 % of control
[3]
  T/C: 117 % of control

## Cc1cc(O)c2cc3c(O)c(O)ccc3cc2c1
endpoint: mean survival time, dose: 1.0 mg/kg/injection, schedule: Q01DX010 (ip), vehicle: saline
  T/C: 100 % of control
endpoint: mean survival time, dose: 2.0 mg/kg/injection, schedule: Q01DX010 (ip), vehicle: saline
  T/C: 103 % of control

## COc1ccc(/C=N/NC(N)=S)cc1
[4]
  T/C: 100 % of control
[5]
  T/C: 100 % of control
endpoint: mean survival time, dose: 128.0 mg/kg/injection, schedule: Q01DX010 (ip), vehicle: saline
  T/C: 100 % of control
endpoint: mean survival time, dose: 256.0 mg/kg/injection, schedule: Q01DX010 (ip), vehicle: saline
  T/C: 106 % of control

## Cc1n[nH]c(C)c1Br
endpoint: mean survival time, dose: 150.0 mg/kg/injection, schedule: Q01DX010 (ip), vehicle: water
  T/C: 101 % of control
[6]
  T/C: 104 % of control

## CN1C2CCC1CC(OC(=O)C(CO)c1ccccc1)C2 (stereo not drawn)
[2]
  T/C: 96 % of control
[3]
  T/C: 100 % of control

## Nc1ncnc2[nH]ncc12
endpoint: mean survival time, dose: 1.5 mg/kg/injection, schedule: Q01DX010 (ip), vehicle: saline
  T/C: 100 % of control
endpoint: mean survival time, dose: 3.0 mg/kg/injection, schedule: Q01DX010 (ip), vehicle: saline
  T/C: 110 % of control and 100 % of control
endpoint: mean survival time, dose: 6.0 mg/kg/injection, schedule: Q01DX010 (ip), vehicle: saline
  T/C: 120 % of control and 100 % of control
endpoint: mean survival time, dose: 12.0 mg/kg/injection, schedule: Q01DX010 (ip), vehicle: saline
  T/C: 115 % of control and 95 % of control

## CCC(=O)O[C@H]1CC[C@H]2[C@@H]3CCC4=CC(=O)CC[C@]4(C)[C@H]3CC[C@]12C
endpoint: mean survival time, dose: 62.5 mg/kg/injection, schedule: Q01DX010 (sc), vehicle: steriod suspending solution
  T/C: 96 % of control
endpoint: mean survival time, dose: 125.0 mg/kg/injection, schedule: Q01DX010 (sc), vehicle: steriod suspending solution
  T/C: 100 % of control
endpoint: mean survival time, dose: 250.0 mg/kg/injection, schedule: Q01DX010 (sc), vehicle: steriod suspending solution
  T/C: 100 % of control
endpoint: mean survival time, dose: 500.0 mg/kg/injection, schedule: Q01DX010 (sc), vehicle: steriod suspending solution
  T/C: 100 % of control

## CN1CCN(CCCN2c3ccccc3Sc3ccc(C(F)(F)F)cc32)CC1
[7]
  T/C: 107 % of control
endpoint: mean survival time, dose: 40.0 mg/kg/injection, schedule: Q01DX010 (ip), vehicle: saline
  T/C: 115 % of control

## Cc1cc(N(CCCl)CCCl)ccc1C=Nc1ccccc1-c1ccccc1
[2]
  T/C: 100 % of control
[3]
  T/C: 100 % of control
[8]
  T/C: 100 % of control

## COc1cc2c(c3c1c(=O)c1ccccc1n3C)C=CC(C)(C)O2
endpoint: mean survival time, dose: 6.25 mg/kg/injection, schedule: Q01DX010 (ip), vehicle: other
  T/C: 108 % of control
endpoint: mean survival time, dose: 12.5 mg/kg/injection, schedule: Q01DX010 (ip), vehicle: other
  T/C: 108 % of control
endpoint: mean survival time, dose: 25.0 mg/kg/injection, schedule: Q01DX010 (ip), vehicle: other
  T/C: 116 % of control
endpoint: mean survival time, dose: 50.0 mg/kg/injection, schedule: Q01DX010 (ip), vehicle: other
  T/C: 91 % of control
endpoint: mean survival time, dose: 100.0 mg/kg/injection, schedule: Q01DX010 (ip), vehicle: other
  T/C: 116 % of control

## C[N+](C)(C)c1ncnc2nc[nH]c12
endpoint: mean survival time, dose: 15.0 mg/kg/injection, schedule: Q01DX010 (ip), vehicle: saline
  T/C: 107 % of control
endpoint: mean survival time, dose: 30.0 mg/kg/injection, schedule: Q01DX010 (ip), vehicle: saline
  T/C: 110 % of control
endpoint: mean survival time, dose: 60.0 mg/kg/injection, schedule: Q01DX010 (ip), vehicle: saline
  T/C: 114 % of control

## O=CC(NC(=O)N(CCCl)N=O)C(O)C(O)C(O)CO (stereo not drawn)
endpoint: median survival time, dose: 0.62 mg/kg/injection, schedule: Q01DX005 (ip), vehicle: other
  T/C: 110 % of control
endpoint: median survival time, dose: 2.5 mg/kg/injection, schedule: Q01DX005 (ip), vehicle: other
  T/C: 156 % of control
endpoint: median survival time, dose: 5.0 mg/kg/injection, schedule: Q01DX005 (ip), vehicle: other
  T/C: 224 % of control
endpoint: median survival time, dose: 10.0 mg/kg/injection, schedule: Q01DX005 (ip), vehicle: other
  T/C: 89 % of control

## O=C1C(=O)N(CN2CCCCC2)c2ccccc21
[3]
  T/C: 100 % of control
[8]
  T/C: 100 % of control
endpoint: mean survival time, dose: 200.0 mg/kg/injection, schedule: Q01DX010 (ip), vehicle: saline
  T/C: 96 % of control
endpoint: mean survival time, dose: 400.0 mg/kg/injection, schedule: Q01DX010 (ip), vehicle: saline
  T/C: 100 % of control

## O=C(NO)c1cccnc1
endpoint: mean survival time, dose: 270.0 mg/kg/injection, schedule: Q01DX010 (ip), vehicle: water
  T/C: 113 % of control
[9]
  T/C: 107 % of control
[10]
  T/C: 107 % of control and 120 % of control

## NCCCC(=O)NCCCCCCCCCCNC(=O)CCCN
[1]
  T/C: 96 % of control
[2]
  T/C: 93 % of control
[3]
  T/C: 96 % of control
[8]
  T/C: 103 % of control

## COc1cc2c(cc1Oc1c(Oc3c(O)c(OC)cc4c3C(CC(C)C)N(C)CC4)c(OC)cc3c1C(CC(C)C)N(C)CC3)C(CC(C)C)N(C)CC2 (stereo not drawn)
[2]
  T/C: 107 % of control
[3]
  T/C: 115 % of control
[8]
  T/C: 111 % of control

## CCC(CCC(C)C1CCC2C3CC=C4CC(O)CCC4(C)C3CCC12C)C(C)C (stereo not drawn) (tested in a mixture with another compound)
endpoint: mean survival time, dose: 12.0 mg/kg/injection, schedule: Q01DX010 (ip), vehicle: water
  T/C: 102 % of control
endpoint: mean survival time, dose: 25.0 mg/kg/injection, schedule: Q01DX010 (ip), vehicle: water
  T/C: 109 % of control
endpoint: mean survival time, dose: 25.0 mg/kg/injection, schedule: Q#A X020 (ip), vehicle: other
  T/C: 87 % of control
endpoint: mean survival time, dose: 50.0 mg/kg/injection, schedule: Q01DX010 (ip), vehicle: water
  T/C: 93 % of control

## O=C(C[C@H]1CCC[C@H](CC(=O)c2ccccc2)N1)c1ccccc1
[1]
  T/C: 92 % of control
[2]
  T/C: 107 % of control
[3]
  T/C: 107 % of control

## CC(=O)Nc1ccc(/C=N/Nc2ccc([N+](=O)[O-])cn2)cc1
endpoint: mean survival time, dose: 62.5 mg/kg/injection, schedule: Q01DX010 (ip), vehicle: saline
  T/C: 100 % of control
endpoint: mean survival time, dose: 125.0 mg/kg/injection, schedule: Q01DX010 (ip), vehicle: saline
  T/C: 100 % of control
endpoint: mean survival time, dose: 250.0 mg/kg/injection, schedule: Q01DX010 (ip), vehicle: saline
  T/C: 96 % of control

## CC(=O)OC(C)(C)/C=C/C(=O)[C@](C)(O)[C@H]1[C@H](O)C[C@@]2(C)[C@@H]3CC=C4[C@@H](C[C@H](O)C(=O)C4(C)C)[C@]3(CO)C(=O)C[C@]12C
endpoint: mean survival time, dose: 0.16 mg/kg/injection, schedule: Q01DX010 (ip), vehicle: saline
  T/C: 103 % of control
endpoint: mean survival time, dose: 0.25 mg/kg/injection, schedule: Q01DX010 (ip), vehicle: saline
  T/C: 107 % of control
endpoint: mean survival time, dose: 0.57 mg/kg/injection, schedule: Q01DX010 (ip), vehicle: saline
  T/C: 103 % of control

## CCC1=CC2CN3CCc4c([nH]c5ccccc45)C(C(=O)OC)(C2)C13 (stereo not drawn)
[11]
  T/C: 117 % of control
[12]
  T/C: 103 % of control
[13]
  T/C: 100 % of control
[7]
  T/C: 92 % of control

## CCC12CCCN3CCc4c(n(c5ccccc45)C(O)(C(=O)OC)C1)C32 (stereo not drawn)
endpoint: mean survival time, dose: 1.88 mg/kg/injection, schedule: Q01DX010 (ip), vehicle: saline
  T/C: 90 % of control
endpoint: mean survival time, dose: 3.75 mg/kg/injection, schedule: Q01DX010 (ip), vehicle: saline
  T/C: 93 % of control
endpoint: mean survival time, dose: 7.5 mg/kg/injection, schedule: Q01DX010 (ip), vehicle: saline
  T/C: 96 % of control

## CNCC(O)(C(=O)O)C(=O)O
[3]
  T/C: 103 % of control
[8]
  T/C: 96 % of control

## O=C(NO)c1ccncc1
[6]
  T/C: 101 % of control
endpoint: mean survival time, dose: 200.0 mg/kg/injection, schedule: Q02DX005 (ip), vehicle: water
  T/C: 106 % of control
endpoint: mean survival time, dose: 300.0 mg/kg/injection, schedule: Q01DX010 (ip), vehicle: water
  T/C: 108 % of control
endpoint: mean survival time, dose: 300.0 mg/kg/injection, schedule: Q02DX005 (ip), vehicle: water
  T/C: 99 % of control
endpoint: mean survival time, dose: 335.0 mg/kg/injection, schedule: Q01DX010 (ip), vehicle: water
  T/C: 106 % of control
[9]
  T/C: 106 % of control
endpoint: mean survival time, dose: 400.0 mg/kg/injection, schedule: Q02DX005 (ip), vehicle: water
  T/C: 110 % of control
endpoint: mean survival time, dose: 500.0 mg/kg/injection, schedule: Q01DX010 (ip), vehicle: water
  T/C: 103 % of control
[10]
  T/C: 111 % of control
endpoint: mean survival time, dose: 600.0 mg/kg/injection, schedule: Q02DX005 (ip), vehicle: water
  T/C: 106 % of control
endpoint: mean survival time, dose: 800.0 mg/kg/injection, schedule: Q02DX005 (ip), vehicle: water
  T/C: 109 % of control

## c1ccc(CNc2ncnc3[nH]ncc23)cc1
endpoint: mean survival time, dose: 8.0 mg/kg/injection, schedule: Q01DX010 (ip), vehicle: saline
  T/C: 100 % of control
endpoint: mean survival time, dose: 16.0 mg/kg/injection, schedule: Q01DX010 (ip), vehicle: saline
  T/C: 110 % of control
[4]
  T/C: 120 % of control and 90 % of control
[5]
  T/C: 105 % of control and 110 % of control

## Nc1nc(=S)c2[nH]cnc2[nH]1
endpoint: mean survival time, dose: 1.25 mg/kg/injection, schedule: Q01DX010 (ip), vehicle: saline
  T/C: 161 % of control and 181 % of control
[11]
  T/C: 150 % of control
[12]
  T/C: 122 % of control
[13]
  T/C: 105 % of control
